Biological target: WDR5 (Homo sapiens (Human), UniProt P61964)
Assay: TR-FRET binding assay (displacement of 10mer-Thr-FAM probe from WDR5)
Settings: read-out: Ki for Inhibition of WDR5 by TR-FRET assay

| Structure (SMILES) | Ki |
| --- | --- |
| Cc1cc([C@@H](NC(=O)c2cc(CN3C[C@H](C)OC3=N)cc(-c3cccnc3C(F)(F)F)c2)C2CC2)ccc1F [Example 296, N—((S)-cyclopropyl(4-fluoro-3-methylphenyl)methyl)-3-(((S)-2-imino-5-methyloxazolidin-3-yl)methyl)-5-(2-(trifluoromethyl)pyridin-3-yl)benzamide] | 7 nM |
| Cc1cc([C@@H](NC(=O)c2cc(CN3CCSC3=N)cc(-c3ccc(F)cc3C#N)c2)C2CC2)ccc1F [Example 316] | 0.91 nM |
| N=C1SCCN1Cc1cc(C(=O)N[C@H](c2ccc(Cl)c(Cl)c2)C2CC2)cc(-c2ncc(F)cc2C(F)(F)F)c1 [Example 317, (S)—N-(Cyclopropyl(3,4-dichlorophenyl)methyl)-3-(5-fluoro-3-(trifluoromethyl)pyridin-2-yl)-5-((2-iminothiazolidin-3-yl)methyl)benzamide] | 0.28 nM |
| N=C1SCCN1Cc1cc(C(=O)N[C@H](c2ccc(F)c(F)c2)C2CC2)cc(-c2cccnc2C(F)(F)F)c1 [Example 318, (S)—N-(Cyclopropyl(3,4-difluorophenyl)methyl)-3-((2-iminothiazolidin-3-yl)methyl)-5-(2-(trifluoromethyl)pyridin-3-yl)benzamide] | 0.29 nM |
| CCn1cc(-c2cc(CN3CCSC3=N)cc(C(=O)NCc3ccc(=O)n(C)c3)c2)c(C(F)(F)F)n1 [Example 323, 3-(1-Ethyl-3-(trifluoromethyl)-1H-pyrazol-4-yl)-5-((2-iminothiazolidin-3-yl)methyl)-N-((1-methyl-6-oxo-1,6-dihydropyridin-3-yl)methyl)benzamide] | 1.8 nM |
| Cc1cc([C@@H](NC(=O)c2cc(CN3CCSC3=N)cc(-c3cn(C)nc3C(F)(F)F)c2)C2CC2)ncc1F [Example 326, (S)—N-(Cyclopropyl(5-fluoro-4-methylpyridin-2-yl)methyl)-3-((2-iminothiazolidin-3-yl)methyl)-5-(1-methyl-3-(trifluoromethyl)-1H-pyrazol-4-yl)benzamide] | < 0.1 nM |
| Cc1cc([C@@H](NC(=O)c2cc(Cn3cccc(F)c3=N)cc(-c3cc(C(F)(F)F)nn3C)c2)C2CC2)ccc1F [Example 345, (S)—N-(Cyclopropyl (4-fluoro-3-methylphenyl)methyl)-3-((3-fluoro-2-iminopyridin-1(2H)-yl)methyl)-5-(1-methyl-3-(trifluoromethyl)-1H-pyrazol-5-yl)benzamide] | 2.4 nM |
| Cc1cc([C@@H](NC(=O)c2cc(Cn3cc(F)ccc3=N)cc(-c3cn(C)nc3C(F)(F)F)c2)C2CC2)ccc1F [Example 353, (S)—N-(cyclopropyl(4-fluoro-3-methylphenyl)methyl)-3-((5-fluoro-2-iminopyridin-1(2H)-yl)methyl)-5-(1-methyl-3-(trifluoromethyl)-1H-pyrazol-4-yl)benzamide] | < 0.1 nM |

Same assay, conditions: read-out: Ki for Inhibition of WDR5 by TR-FRET assay; TR-FRET, 10mer-Thr-FAM probe, WDR5-His tag 2 nM, pH 7.0

| Structure (SMILES) | Ki |
| --- | --- |
| CCn1cc(-c2cc(CN3CCOC3=N)cc(C(=O)NCC3CCCO3)c2)c(C(F)(F)F)n1 (stereo not drawn) [Example 289, 3-(1-Ethyl-3-(trifluoromethyl)-1H-pyrazol-4-yl)-5-((2-iminooxazolidin-3-yl)methyl)-N-((tetrahydrofuran-2-yl)methyl)benzamide] | 31 nM |
| CCn1cc(-c2cc(CN3CCOC3=N)cc(C(=O)NCC3CCOC3)c2)c(C(F)(F)F)n1 (stereo not drawn) [Example 290, 3-(1-Ethyl-3-(trifluoromethyl)-1H-pyrazol-4-yl)-5-((2-iminooxazolidin-3-yl)methyl)-N-((tetrahydrofuran-3-yl)methyl)benzamide] | 20 nM |
| Cc1cc([C@@H](NC(=O)c2cc(CN3C[C@@H](C)OC3=N)cc(-c3cccnc3C(F)(F)F)c2)C2CC2)ccc1F [Example 297, N—((S)-cyclopropyl(4-fluoro-3-methylphenyl)methyl)-3-(((R)-2-imino-5-methyloxazolidin-3-yl)methyl)-5-(2-(trifluoromethyl)pyridin-3-yl)benzamide] | 2.3 nM |
| CCOc1c(C(=O)N[C@H](c2ccc(F)c(C)c2)C2CC2)cc(Cn2ccoc2=N)cc1-c1cn(C)nc1C(F)(F)F [Example 304] | < 0.1 nM |
| N=C1SCCN1Cc1cc(C(=O)N[C@H](c2ccc(Cl)c(Cl)c2)C2CC2)cc(-c2cccnc2C(F)(F)F)c1 [Example 311, (S)—N-(Cyclopropyl(3,4-dichlorophenyl)methyl)-3-((2-iminothiazolidin-3-yl)methyl)-5-(2-(trifluoromethyl)pyridin-3-yl)benzamide] | 1.49 nM |
| Cc1cc([C@@H](NC(=O)c2cc(CN3CCSC3=N)cc(-c3cn(CC(C)C)nc3C(F)(F)F)c2)C2CC2)ccc1F [Example 313, (S)—N-(Cyclopropyl(4-fluoro-3-methylphenyl)methyl)-3-((2-iminothiazolidin-3-yl)methyl)-5-(1-isobutyl-3-(trifluoromethyl)-1H-pyrazol-4-yl)benzamide] | 1.2 nM |
| Cc1cc([C@@H](NC(=O)c2cc(CN3CCSC3=N)cc(-c3cn(C4CCCC4)nc3C(F)(F)F)c2)C2CC2)ccc1F [Example 314, (S)-3-(1-Cyclopentyl-3-(trifluoromethyl)-1H-pyrazol-4-yl)-N-(cyclopropyl(4-fluoro-3-methylphenyl)methyl)-5-((2-iminothiazolidin-3-yl)methyl)benzamide] | 4 nM |
| Cc1cc([C@@H](NC(=O)c2cc(CN3CCCSC3=N)cc(-c3cccnc3C(F)(F)F)c2)C2CC2)ccc1F [Example 315, (S)—N-(Cyclopropyl(4-fluoro-3-methylphenyl)methyl)-3-((2-imino-1,3-thiazinan-3-yl)methyl)-5-(2-(trifluoromethyl)pyridin-3-yl)benzamide] | 1 nM |
| CC(C)n1cc(-c2cc(CN3CCSC3=N)cc(C(=O)N[C@H](c3ccc(F)c(F)c3)C3CC3)c2)c(C(F)(F)F)n1 [Example 319, (S)—N-(Cyclopropyl(3,4-difluorophenyl)methyl)-3-((2-iminothiazolidin-3-yl)methyl)-5-(1-isopropyl-3-(trifluoromethyl)-1H-pyrazol-4-yl)benzamide] | 0.32 nM |
| Cc1cc([C@@H](NC(=O)c2cc(Cn3ccccc3=N)cc(-c3cc(C(F)(F)F)nn3C)c2)C2CC2)ccc1F [Example 346, (S)—N-(Cyclopropyl(4-fluoro-3-methylphenyl)methyl)-3-((2-iminopyridin-(2H)-yl)methyl)-5-(1-methyl-3-(trifluoromethyl)-1H-pyrazol-5-yl)benzamide] | 1.6 nM |
| Cc1cc([C@@H](NC(=O)c2cc(Cn3cc(F)ccc3=N)cc(-c3cccnc3C(F)(F)F)c2)C2CC2)ccc1F [Example 354, (S)—N-(cyclopropyl(4-fluoro-3-methylphenyl)methyl)-3-((5-fluoro-2-iminopyridin-1(2H)-yl)methyl)-5-(2-(trifluoromethyl)pyridin-3-yl)benzamide] | < 0.1 nM |
| Cc1ccnc(C(NC(=O)c2cc(Cn3ccn(C)c3=N)cc(-c3ccc(F)cc3C)n2)C2CC2)c1 (stereo not drawn) [Example 356, N-(Cyclopropyl(4-methylpyridin-2-yl)methyl)-6-(4-fluoro-2-methylphenyl)-4-((2-imino-3-methyl-2,3-dihydro-1H-imidazol-1-yl)methyl)picolinamide] | 182 nM |
| COc1ccnc(CNC(=O)c2cc(Cn3ccn(C)c3=N)cc(-c3ccc(F)cc3C)n2)c1 [Example 357, 6-(4-Fluoro-2-methylphenyl)-4-((2-imino-3-methyl-2,3-dihydro-1H-imidazol-1-yl)methyl)-N-((4-methoxypyridin-2-yl)methyl)picolinamide] | 1.3 nM |
| Cc1cc(F)ccc1-c1cc(Cn2ccn(C)c2=N)cc(C(=O)NCc2ccc(Cl)c(F)c2)n1 [Example 359, N-(4-Chloro-3-fluorobenzyl)-6-(4-fluoro-2-methylphenyl)-4-((2-imino-3-methyl-2,3-dihydro-1H-imidazol-1-yl)methyl)picolinamide] | 8.7 nM |
| Cc1cc(F)ccc1-c1cc(Cn2ccn(C)c2=N)cc(C(=O)N[C@H](C)c2ccc(F)c(C(F)(F)F)c2)n1 [Example 360, (R)-6-(4-fluoro-2-methylphenyl)-N-(1-(4-fluoro-3-(trifluoromethyl)phenyl)ethyl)-4-((2-imino-3-methyl-2,3-dihydro-1H-imidazol-1-yl)methyl)picolinamide] | 1 nM |
| Cc1cc([C@@H](NC(=O)c2cc(CN3CCCOC3=N)cc(-c3cccnc3C(F)(F)F)c2)C2CC2)ccc1F [Example 362, (S)—N-(Cyclopropyl(4-fluoro-3-methylphenyl)methyl)-3-((2-imino-1,3-oxazinan-3-yl)methyl)-5-(2-(trifluoromethyl)pyridin-3-yl)benzamide] | 0.72 nM |
| Cc1cc([C@@H](NC(=O)c2cc(Cn3cnn(C)c3=N)cc(-c3cn(C)nc3C(F)(F)F)c2)C2CC2)ccc1F [Example 363, (S)—N-(Cyclopropyl(4-fluoro-3-methylphenyl)methyl)-3-((5-imino-1-methyl-1,5-dihydro-4H-1,2,4-triazol-4-yl)methyl)-5-(1-methyl-3-(trifluoromethyl)-H-pyrazol-4-yl)benzamide] | < 0.1 nM |

Test system: MV4:11 human cancer cell lines
Assay: Anti-proliferative activity, CellTiter-Glo viability assay, 7 day protocol
Assay type: cell-based
Settings: Homo sapiens, MV4-11, 168 h, MV4:11 cells, 7 day incubation, read-out: GI50 on cellular proliferation of MV4:11 human cancer cell lines
Procedure: Viability assays are performed by dispensing […] into each well of an opaque 384-well plate and adding compounds at the indicated concentrations in a final volume of 32 μL and a final concentration of DMSO of 0.1% for all samples. After a set incubation period, 7 day protocol, the viability of cells in each well is assessed using the CellTiter-Glo assay (Promega), read on a GloMax 96 Microplane Luminometer (Promega). Serial dilutions of each cell type are included in all assays to generate standard curves and determine assay measurements are taken within the dynamic range of the instrument. GI50 values are calculated based on three biological replicates, each with three technical replicates. Data are expressed as mean plus/minus S.E.M.

| GI50 | Structure (SMILES) |
| --- | --- |
| 240 nM | Cc1cc(F)ccc1-c1cc(Cn2ccn(C)c2=N)cc(C(=O)NCc2ccc(Cl)c(Cl)c2)n1 [Example 5, N-(3,4-dichlorobenzyl)-6-(4-fluoro-2-methylphenyl)-4-((2-imino-3-methyl-2,3-dihydro-1H-imidazol-1-yl)methyl)picolinamide] |
| 14000 nM | Cc1cc(-c2cc(Cn3ccn(C)c3=N)cc(C(=O)NCc3ccc(Cl)c(Cl)c3)c2)ccn1 [Example 22, N-(3,4-Dichlorobenzyl)-3-((2-imino-3-methyl-2,3-dihydro-1H-imidazol-1-yl)methyl)-5-(2-methylpyridin-4-yl)benzamide] |

— patent US10844044B2 (Vanderbilt University, priority 2018, dated 2020)
